Experimental data: patent US20240287614A1, “RECIPROCAL MICRORNA-MRNA PAIRINGS AS BIOMARKERS AND THERAPEUTIC TARGETS IN CANCER” (UNIVERSITY OF MARYLAND, EASTERN SHORE, priority 2023, published 2024)

Tests used:
[1] = tested on: MTOR; assay: Western blot of mTOR in transfected prostate cancer cells; format: cell-based, human; details: mimic transfection vs NS transfection
Protocol: […] RC77 T/E, a primary prostate cancer cell line derived from a patient, was kindly provided by Dr. Johng Rhim at Center for Prostate Disease Research (CPDR) in Rockville, MD. LNCaP and PC-3 were served as prostate cancer cell line models, and RC77 T/E and MDA PCa 2b were served as prostate cancer cell models in the study. The cells were cultured in specific cell culture media, LNCaP was cultured in RPMI with 10% fetal bovine serum (FBS), PC-3 was cultured in DMEM with 10% FBS, MDA PCa 2b were cultured in BRFF-HPC1 with 20% FBS and RC77 T/E was cultured in Keratinocyte SFM with Human Recombinant Epidermal Growth Factor (EGF 1-53) and Bovine Pituitary Extract (BPE). Cells were maintained at 37° C. in a 5% CO2 incubator. LNCaP, PC-3 and MDA PCa 2b cells were seeded at density 3×10^4 cells/well in 6-well plates. RC77 T/E cells were seeded at density 5×10^4 cells/well in 6-well plates. […]
For measurement of the gene expression at protein level, proteins were extracted using M-PER Mammalian Protein Extraction Reagent (Thermo Fisher Scientific) with protease and phosphatase inhibitor cocktail (Thermo Fisher Scientific). Protein concentrations were quantified using BCA assay kit (Thermo Fisher Scientific). […]

[2] = tested on: AR; assay: Western blot of AR in total, cytoplasmic and nuclear protein fractions; format: cell-based, human
Description: The human cell lines used in the study included: 22Rv1, LNCaP, PC-3, RC77 T/E and MDA PCa 2b (prostate cancer cell lines), MDA MB 231 and MCF-7 (breast cancer cell lines), HT-29 and SW620 (colon cancer cell lines), A549 and H1299 (lung cancer cell lines). RWPE-1, HMEC, FHC, and BEAS-2B were used as normal control cell lines for prostate, breast, colon, and lung, respectively. Note that 22Rv1 is a castration-resistant […] prostate cancer cell line, while LNCaP and PC-3 were derived from lymph node and bone metastasis of […] prostate cancer patients, respectively. RC77 T/E was derived from a primary prostate cancer patient, and MDA PCa 2b was derived from bone metastasis of an prostate cancer patient. The cell lines described were used as in vitro cell models to evaluate the functional roles of miR-99b-5p/MTOR pairing in the […] prostate cancer, African American prostate cancer and solid tumors in general. The cells were grown in specific cell culture media described as follows: 22Rv1, LNCaP, MCF-7 and H1299 were cultured in RPMI-1640 with 10% fetal bovine serum (FBS), PC-3, A549 and FHC were cultured in DMEM with 10% FBS, RC77 T/E was cultured in Keratinocyte SFM with human recombinant epidermal growth factor (EGF) and bovine pituitary extract (BPE), MDA PCa 2b were cultured in BRFF-HPC1 with 20% FBS, HT-29 was cultured in McCory's with 10% FBS, SW620 and MDA MB 231 were cultured in L-15 with 10% FBS, HMEC was cultured in mammary epithelial cell basal medium with supplements, and BEAS-2B was cultured in BEBM base medium with BEBM supplement kit. Cells were maintained at 37° C. in a 5% CO2 incubator.
The 22Rv1, LNCaP, PC-3, MDA PCa 2b, MCF7, H1299, A549, HT-29, SW620, MDA MB-231, HMEC and BEAS-2B cells were seeded at a density of 3×10^5 cells/well in 6-well plates. RC77 T/E cells were seeded at a density of 5×10^5 cells/well in 6-well plates. The cells were grown for 24 h and then transfected with nonsense/scrambled RNA (NS) and miR-99b-5p mimic (Ambion) using DharmaFECT4 transfection reagent (Dharmacon). After 24 h, fresh media were applied to replace the transfection reagent-containing media, then the cells were incubated for an additional 24 h.
The total proteins were extracted using M-PER extraction reagent with protease and phosphatase inhibitor cocktail (Thermo Fisher Scientific) according to manufacturer's protocol. […] Equal amounts of proteins were used based on the quantification using BCA assay kit (Thermo Fisher Scientific), and the samples were separated by electrophoresis using NuPAGE 4-12% or 8% Bis-Tris gels (Invitrogen). […] The results were analyzed with SuperSignal ECL substrates (Thermo Fisher Scientific) and a ChemiDoc XRS system (Bio-Rad). […]

## miR-99b-5p mimic: miRNA mimic of miR-99b-5p (SEQ ID NO: 2, CACCCGUAGAACCGACCUUGCG), purchased from Ambion (listed as RNA, chemistry not given here; listed as Homo sapiens)
[1]
  mTOR level (Western blot): downregulated
[2]; 22Rv1 and MDA PCa 2b cells
  cytoplasmic AR (Western blot): slight to moderate decrease
[2]; MCF-7, 22Rv1, MDA PCa 2b, mimic vs NS
  AR expression levels, total lysates (Western blot): significantly reduced
[2]; MCF-7, 22Rv1, and MDA PCa 2b cells
  nuclear AR protein levels (Western blot): significantly decreased
[2]; MCF-7 cells
  cytoplasmic AR (Western blot): no change
